Measured values reported in publication PMC11189555, “Aryl amino acetamides prevent Plasmodium falciparum ring development via targeting the lipid-transfer protein PfSTART1” (Nature Communications, 2024).

Columns and labels:
Format in all cases: cell-based, Plasmodium falciparum
[1] = test system: PopD-D7 M-833 resistant clone (PfSTART1 N309K); experiment: Growth inhibition assay (72 h, LDH activity)
How it was run: (§1)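 Synchronised ring-stage 3D7-derived clones (0.3-0.6% parasitemia, 2% haematocrit) grown 72 h in compound serial dilutions, some with 0, 0.25 or 2.5 mM glucosamine. Growth read as LDH activity after freeze-thaw (Malstat/NBT, A650), normalised to DMSO and uninfected RBC; EC50 from variable-slope log(inhibitor) fit.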

[2] = test system: PopE-F10 M-833 resistant clone (PfSTART1 N330K); experiment: Growth inhibition assay (72 h, LDH activity)
How it was run: as §1

[3] = test system: female gametes from mature stage V gametocytes; experiment: Dual gamete formation assay: female gamete formation (Pfs25 expression)
Description: The compounds were tested in the P. falciparum Dual Gamete Formation Assay (PfDGFA)[84], fully described in the Supplementary Information. […]
Dual gamete formation assays. The compounds were tested in the P. falciparum Dual Gamete Formation Assay (PfDGFA) 13. Briefly, mature stage V gametocytes were exposed to compounds for 48 h at 37°C in 384 well plates in gametocyte culture medium (RPMI 1640 supplemented with 25 mM HEPES, 50 μg/mL hypoxanthine, 4.8 g/L NaHCO3, 2 mM L-glutamine, 5% pooled type AB serum, 0.5% Albumax II (Gibco)) under a 1% O2, 3% CO2, 96% N2 environment. Gametogenesis was then triggered by the addition of 10 μL ookinete medium (gametocyte culture medium supplemented with 100 μM xanthurenic acid and 0.27 µg/mL Cy3-labelled anti-Pfs25 antibody) to each well at room temperature. Plates were then cooled on a metal block at 4°C for four min to ensure even cooling and then stabilised for a further 4 min at 28°C. At 20 min post-induction, male gametogenesis was recorded in each well by automated brightfield microscopy using a x4 objective lens and 1.5x magnifier (x6 effective magnification). Afterward, plates were incubated in the dark at room temperature for 24 h and then female gametogenesis recorded in each well by automated fluorescence microscopy (anti-Pfs25-positive cells). All experiments were performed in quadruplicate with DMSO and cabamiquine (DDD107498)17 as negative and positive controls respectively. All data was evaluated in comparison to the positive and negative controls to calculate percentage inhibition of male and female gametocytes, and dose response analysis and IC50 calculation performed using GraphPad Prism. […]

Structure (SMILES): CC(C)(Nc1ccc(Cl)c(S(=O)(=O)N2CCOCC2)c1)C(=O)Nc1ccc(F)c(Cl)c1 [W-991]
- EC50 ([1]; Plasmodium falciparum, Supplementary Table 1, PopD-D7 (N309K), 72 h, read-out: EC50): > 200 nM
- resistance of the line compared with 3D7 ([1]; PopD-D7 (N309K), Fig 4B): highly resistant
- (av-uRBC) / (DMSO-uRBC) x100 ([1]; PopD-D7, 0.0762079 nM, biological replicate 1): 96.5635
- (av-uRBC) / (DMSO-uRBC) x100 ([1]; PopD-D7, 0.0762079 nM, biological replicate 2): 102.6
- (av-uRBC) / (DMSO-uRBC) x100 ([1]; PopD-D7, 0.0762079 nM, biological replicate 3): 87.8712
- (av-uRBC) / (DMSO-uRBC) x100 ([1]; PopD-D7, 0.228624 nM, biological replicate 1): 100.291
- (av-uRBC) / (DMSO-uRBC) x100 ([1]; PopD-D7, 0.228624 nM, biological replicate 2): 103.59
- (av-uRBC) / (DMSO-uRBC) x100 ([1]; PopD-D7, 0.228624 nM, biological replicate 3): 90.7443
- (av-uRBC) / (DMSO-uRBC) x100 ([1]; PopD-D7, 0.685871 nM, biological replicate 1): 102.374
- (av-uRBC) / (DMSO-uRBC) x100 ([1]; PopD-D7, 0.685871 nM, biological replicate 2): 101.183
- (av-uRBC) / (DMSO-uRBC) x100 ([1]; PopD-D7, 0.685871 nM, biological replicate 3): 89.0089
- (av-uRBC) / (DMSO-uRBC) x100 ([1]; PopD-D7, 2.05761 nM, biological replicate 1): 98.4575
- (av-uRBC) / (DMSO-uRBC) x100 ([1]; PopD-D7, 2.05761 nM, biological replicate 2): 102.962
- (av-uRBC) / (DMSO-uRBC) x100 ([1]; PopD-D7, 2.05761 nM, biological replicate 3): 86.5214
- (av-uRBC) / (DMSO-uRBC) x100 ([1]; PopD-D7, 6.17284 nM, biological replicate 1): 97.3005
- (av-uRBC) / (DMSO-uRBC) x100 ([1]; PopD-D7, 6.17284 nM, biological replicate 2): 103.791
- (av-uRBC) / (DMSO-uRBC) x100 ([1]; PopD-D7, 6.17284 nM, biological replicate 3): 87.2349
- (av-uRBC) / (DMSO-uRBC) x100 ([1]; PopD-D7, 18.5185 nM, biological replicate 1): 94.5325
- (av-uRBC) / (DMSO-uRBC) x100 ([1]; PopD-D7, 18.5185 nM, biological replicate 2): 103.019
- (av-uRBC) / (DMSO-uRBC) x100 ([1]; PopD-D7, 18.5185 nM, biological replicate 3): 88.7968
- (av-uRBC) / (DMSO-uRBC) x100 ([1]; PopD-D7, 55.5556 nM, biological replicate 1): 87.2483
- (av-uRBC) / (DMSO-uRBC) x100 ([1]; PopD-D7, 55.5556 nM, biological replicate 2): 102.262
- (av-uRBC) / (DMSO-uRBC) x100 ([1]; PopD-D7, 55.5556 nM, biological replicate 3): 77.42
- (av-uRBC) / (DMSO-uRBC) x100 ([1]; PopD-D7, conc. 166.667 nM, Biological replicate 1 (2021-10-25)): 74.488
- (av-uRBC) / (DMSO-uRBC) x100 ([1]; PopD-D7, conc. 166.667 nM, Biological replicate 2 (2021-11-03)): 97.8669
- (av-uRBC) / (DMSO-uRBC) x100 ([1]; PopD-D7, conc. 166.667 nM, Biological replicate 3 (2021-11-11)): 58.6579
- (av-uRBC) / (DMSO-uRBC) x100 ([1]; PopD-D7, conc. 500 nM, Biological replicate 1 (2021-10-25)): 40.3034
- (av-uRBC) / (DMSO-uRBC) x100 ([1]; PopD-D7, conc. 500 nM, Biological replicate 2 (2021-11-03)): 75.4488
- (av-uRBC) / (DMSO-uRBC) x100 ([1]; PopD-D7, conc. 500 nM, Biological replicate 3 (2021-11-11)): 31.855
- Fold change compared to 3D7 ([1]; Supplementary Table 1, EC50 on PopD-D7 vs 3D7): > 278 fold
- EC50 ([2]; Plasmodium falciparum, 72 h, Supplementary Table 1, PopE-F10 (N330K), 72 h, read-out: EC50): > 200 nM
- resistance of the line compared with 3D7 ([2]; PopE-F10 (N330K), Fig 4B): highly resistant
- (av-uRBC) / (DMSO-uRBC) x100 ([2]; PopE-F10, 0.0762079 nM, biological replicate 1): 96.1179
- (av-uRBC) / (DMSO-uRBC) x100 ([2]; PopE-F10, 0.0762079 nM, biological replicate 2): 104.725
- (av-uRBC) / (DMSO-uRBC) x100 ([2]; PopE-F10, 0.0762079 nM, biological replicate 3): 92.7129
- (av-uRBC) / (DMSO-uRBC) x100 ([2]; PopE-F10, 0.228624 nM, biological replicate 1): 102.983
- (av-uRBC) / (DMSO-uRBC) x100 ([2]; PopE-F10, 0.228624 nM, biological replicate 2): 105.368
- (av-uRBC) / (DMSO-uRBC) x100 ([2]; PopE-F10, 0.228624 nM, biological replicate 3): 109.575
- (av-uRBC) / (DMSO-uRBC) x100 ([2]; PopE-F10, 0.685871 nM, biological replicate 1): 97.996
- (av-uRBC) / (DMSO-uRBC) x100 ([2]; PopE-F10, 0.685871 nM, biological replicate 2): 105.748
- (av-uRBC) / (DMSO-uRBC) x100 ([2]; PopE-F10, 0.685871 nM, biological replicate 3): 95.4244
- (av-uRBC) / (DMSO-uRBC) x100 ([2]; PopE-F10, 2.05761 nM, biological replicate 1): 96.037
- (av-uRBC) / (DMSO-uRBC) x100 ([2]; PopE-F10, 2.05761 nM, biological replicate 2): 105.199
- (av-uRBC) / (DMSO-uRBC) x100 ([2]; PopE-F10, 2.05761 nM, biological replicate 3): 105.366
- (av-uRBC) / (DMSO-uRBC) x100 ([2]; PopE-F10, 6.17284 nM, biological replicate 1): 97.8882
- (av-uRBC) / (DMSO-uRBC) x100 ([2]; PopE-F10, 6.17284 nM, biological replicate 2): 105.604
- (av-uRBC) / (DMSO-uRBC) x100 ([2]; PopE-F10, 6.17284 nM, biological replicate 3): 97.9523
- (av-uRBC) / (DMSO-uRBC) x100 ([2]; PopE-F10, 18.5185 nM, biological replicate 1): 96.9806
- (av-uRBC) / (DMSO-uRBC) x100 ([2]; PopE-F10, 18.5185 nM, biological replicate 2): 104.615
- (av-uRBC) / (DMSO-uRBC) x100 ([2]; PopE-F10, 18.5185 nM, biological replicate 3): 86.3579
- (av-uRBC) / (DMSO-uRBC) x100 ([2]; PopE-F10, 55.5556 nM, biological replicate 1): 92.6042
- (av-uRBC) / (DMSO-uRBC) x100 ([2]; PopE-F10, 55.5556 nM, biological replicate 2): 99.4928
- (av-uRBC) / (DMSO-uRBC) x100 ([2]; PopE-F10, 55.5556 nM, biological replicate 3): 87.996
- (av-uRBC) / (DMSO-uRBC) x100 ([2]; PopE-F10, 166.667 nM, biological replicate 1): 76.4288
- (av-uRBC) / (DMSO-uRBC) x100 ([2]; PopE-F10, 166.667 nM, biological replicate 2): 88.6391
- (av-uRBC) / (DMSO-uRBC) x100 ([2]; PopE-F10, 166.667 nM, biological replicate 3): 66.2195
- (av-uRBC) / (DMSO-uRBC) x100 ([2]; PopE-F10, 500 nM, biological replicate 1): 33.5999
- (av-uRBC) / (DMSO-uRBC) x100 ([2]; PopE-F10, 500 nM, biological replicate 2): 49.6703
- (av-uRBC) / (DMSO-uRBC) x100 ([2]; PopE-F10, 500 nM, biological replicate 3): 27.1431
- Fold change compared to 3D7 ([2]; Supplementary Table 1, EC50 on PopE-F10 vs 3D7): > 278 fold
- inhibition of female gamete formation ([3]; 1 µM, 48 h treatment of mature gametocytes): no inhibition
- Dual Gamete Formation Assay: Female at 1 µM, Mean ([3]; mean of 4 plates): -2.932
